Experimental data from the CheMixHub ionic liquid set.
± gives the uncertainty stated by the source.

Test: xn = mol fraction of the nth substance listed

O=C1CCCCCN1 + CCCC[N+](CCCC)(CCCC)CCCC.[Cl-]
electrical conductivity (313.15 K, 101 kPa, x1 = 0.5): 0.2162 ± 0.0004 S/m | electrical conductivity (315.65 K, 101 kPa, x1 = 0.5): 0.257 ± 0.0004 S/m | electrical conductivity (328.15 K, 101 kPa, x1 = 0.5): 0.5612 ± 0.0005 S/m

O=C1CCCCCN1 + CCCC[N+](CCCC)(CCCC)CCCC.[Cl-] + O
electrical conductivity (293.15 K, 101 kPa, x1 = 0.0197, x2 = 0.0197): 0.798 ± 0.008 S/m | electrical conductivity (293.15 K, 101 kPa, x1 = 0.146, x2 = 0.146): 0.593 ± 0.006 S/m | electrical conductivity (295.65 K, 101 kPa, x1 = 0.0197, x2 = 0.0197): 0.788 ± 0.0079 S/m | electrical conductivity (295.65 K, 101 kPa, x1 = 0.146, x2 = 0.146): 0.6211 ± 0.0062 S/m | electrical conductivity (298.15 K, 101 kPa, x1 = 0.0197, x2 = 0.0197): 0.778 ± 0.0078 S/m | electrical conductivity (298.15 K, 101 kPa, x1 = 0.0481, x2 = 0.0481): 0.799 ± 0.008 S/m | electrical conductivity (298.15 K, 101 kPa, x1 = 0.0862, x2 = 0.0862): 0.775 ± 0.0078 S/m | electrical conductivity (298.15 K, 101 kPa, x1 = 0.146, x2 = 0.146): 0.639 ± 0.0064 S/m | electrical conductivity (300.65 K, 101 kPa, x1 = 0.0197, x2 = 0.0197): 0.769 ± 0.0077 S/m | electrical conductivity (300.65 K, 101 kPa, x1 = 0.0481, x2 = 0.0481): 0.8 ± 0.008 S/m | electrical conductivity (300.65 K, 101 kPa, x1 = 0.0862, x2 = 0.0862): 0.7743 ± 0.0077 S/m | electrical conductivity (300.65 K, 101 kPa, x1 = 0.146, x2 = 0.146): 0.6505 ± 0.0065 S/m | electrical conductivity (303.15 K, 101 kPa, x1 = 0.0197, x2 = 0.0197): 0.768 ± 0.0077 S/m | electrical conductivity (303.15 K, 101 kPa, x1 = 0.0481, x2 = 0.0481): 0.795 ± 0.008 S/m | electrical conductivity (303.15 K, 101 kPa, x1 = 0.0862, x2 = 0.0862): 0.778 ± 0.0078 S/m | electrical conductivity (303.15 K, 101 kPa, x1 = 0.146, x2 = 0.146): 0.659 ± 0.0066 S/m | electrical conductivity (305.65 K, 101 kPa, x1 = 0.0197, x2 = 0.0197): 0.767 ± 0.0077 S/m | electrical conductivity (305.65 K, 101 kPa, x1 = 0.0481, x2 = 0.0481): 0.788 ± 0.0079 S/m | electrical conductivity (305.65 K, 101 kPa, x1 = 0.0862, x2 = 0.0862): 0.775 ± 0.0078 S/m | electrical conductivity (305.65 K, 101 kPa, x1 = 0.146, x2 = 0.146): 0.667 ± 0.0067 S/m | electrical conductivity (308.15 K, 101 kPa, x1 = 0.0018, x2 = 0.0018): 0.219 ± 0.0065 S/m | electrical conductivity (308.15 K, 101 kPa, x1 = 0.0197, x2 = 0.0197): 0.767 ± 0.0098 S/m | electrical conductivity (308.15 K, 101 kPa, x1 = 0.0481, x2 = 0.0481): 0.7825 ± 0.0078 S/m | electrical conductivity (308.15 K, 101 kPa, x1 = 0.0862, x2 = 0.0862): 0.7733 ± 0.0077 S/m | electrical conductivity (308.15 K, 101 kPa, x1 = 0.146, x2 = 0.146): 0.677 ± 0.0068 S/m | electrical conductivity (310.65 K, 101 kPa, x1 = 0.0018, x2 = 0.0018): 0.219 ± 0.0065 S/m | electrical conductivity (310.65 K, 101 kPa, x1 = 0.0197, x2 = 0.0197): 0.763 ± 0.0098 S/m | electrical conductivity (310.65 K, 101 kPa, x1 = 0.0481, x2 = 0.0481): 0.779 ± 0.0078 S/m | electrical conductivity (310.65 K, 101 kPa, x1 = 0.0862, x2 = 0.0862): 0.768 ± 0.0077 S/m | electrical conductivity (310.65 K, 101 kPa, x1 = 0.146, x2 = 0.146): 0.686 ± 0.0069 S/m | electrical conductivity (313.15 K, 101 kPa, x1 = 0.0018, x2 = 0.0018): 0.221 ± 0.0064 S/m | electrical conductivity (313.15 K, 101 kPa, x1 = 0.0197, x2 = 0.0197): 0.758 ± 0.0097 S/m | electrical conductivity (313.15 K, 101 kPa, x1 = 0.0481, x2 = 0.0481): 0.776 ± 0.0078 S/m | electrical conductivity (313.15 K, 101 kPa, x1 = 0.0862, x2 = 0.0862): 0.7623 ± 0.0076 S/m | electrical conductivity (313.15 K, 101 kPa, x1 = 0.146, x2 = 0.146): 0.6923 ± 0.0069 S/m | electrical conductivity (315.65 K, 101 kPa, x1 = 0.0018, x2 = 0.0018): 0.222 ± 0.0063 S/m | electrical conductivity (315.65 K, 101 kPa, x1 = 0.0197, x2 = 0.0197): 0.753 ± 0.0096 S/m | electrical conductivity (315.65 K, 101 kPa, x1 = 0.0481, x2 = 0.0481): 0.77 ± 0.0077 S/m | electrical conductivity (315.65 K, 101 kPa, x1 = 0.0862, x2 = 0.0862): 0.757 ± 0.0076 S/m | electrical conductivity (315.65 K, 101 kPa, x1 = 0.146, x2 = 0.146): 0.695 ± 0.007 S/m | electrical conductivity (318.15 K, 101 kPa, x1 = 0.0018, x2 = 0.0018): 0.222 ± 0.0062 S/m | electrical conductivity (318.15 K, 101 kPa, x1 = 0.0197, x2 = 0.0197): 0.744 ± 0.0095 S/m | electrical conductivity (318.15 K, 101 kPa, x1 = 0.0481, x2 = 0.0481): 0.7621 ± 0.0076 S/m | electrical conductivity (318.15 K, 101 kPa, x1 = 0.0862, x2 = 0.0862): 0.7513 ± 0.0075 S/m | electrical conductivity (318.15 K, 101 kPa, x1 = 0.146, x2 = 0.146): 0.699 ± 0.007 S/m | electrical conductivity (320.65 K, 101 kPa, x1 = 0.0018, x2 = 0.0018): 0.223 ± 0.0061 S/m | electrical conductivity (320.65 K, 101 kPa, x1 = 0.0197, x2 = 0.0197): 0.735 ± 0.0093 S/m | electrical conductivity (320.65 K, 101 kPa, x1 = 0.0481, x2 = 0.0481): 0.7545 ± 0.0075 S/m | electrical conductivity (320.65 K, 101 kPa, x1 = 0.0862, x2 = 0.0862): 0.7434 ± 0.0074 S/m | electrical conductivity (320.65 K, 101 kPa, x1 = 0.146, x2 = 0.146): 0.699 ± 0.007 S/m | electrical conductivity (323.15 K, 101 kPa, x1 = 0.0018, x2 = 0.0018): 0.223 ± 0.006 S/m | electrical conductivity (323.15 K, 101 kPa, x1 = 0.0197, x2 = 0.0197): 0.725 ± 0.0092 S/m | electrical conductivity (323.15 K, 101 kPa, x1 = 0.0481, x2 = 0.0481): 0.746 ± 0.0075 S/m | electrical conductivity (323.15 K, 101 kPa, x1 = 0.0862, x2 = 0.0862): 0.736 ± 0.0074 S/m | electrical conductivity (323.15 K, 101 kPa, x1 = 0.146, x2 = 0.146): 0.698 ± 0.007 S/m | electrical conductivity (325.65 K, 101 kPa, x1 = 0.0018, x2 = 0.0018): 0.224 ± 0.0059 S/m | electrical conductivity (325.65 K, 101 kPa, x1 = 0.0197, x2 = 0.0197): 0.716 ± 0.009 S/m | electrical conductivity (325.65 K, 101 kPa, x1 = 0.0481, x2 = 0.0481): 0.737 ± 0.0074 S/m | electrical conductivity (325.65 K, 101 kPa, x1 = 0.0862, x2 = 0.0862): 0.727 ± 0.0073 S/m | electrical conductivity (325.65 K, 101 kPa, x1 = 0.146, x2 = 0.146): 0.697 ± 0.007 S/m | electrical conductivity (328.15 K, 101 kPa, x1 = 0.0018, x2 = 0.0018): 0.224 ± 0.0058 S/m | electrical conductivity (328.15 K, 101 kPa, x1 = 0.0197, x2 = 0.0197): 0.704 ± 0.0089 S/m | electrical conductivity (328.15 K, 101 kPa, x1 = 0.0862, x2 = 0.0862): 0.719 ± 0.0072 S/m | electrical conductivity (328.15 K, 101 kPa, x1 = 0.146, x2 = 0.146): 0.6938 ± 0.0069 S/m | electrical conductivity (330.65 K, 101 kPa, x1 = 0.0018, x2 = 0.0018): 0.224 ± 0.0057 S/m | electrical conductivity (330.65 K, 101 kPa, x1 = 0.0197, x2 = 0.0197): 0.693 ± 0.0087 S/m | electrical conductivity (330.65 K, 101 kPa, x1 = 0.0862, x2 = 0.0862): 0.7105 ± 0.0071 S/m | electrical conductivity (330.65 K, 101 kPa, x1 = 0.146, x2 = 0.146): 0.687 ± 0.0069 S/m | electrical conductivity (333.15 K, 101 kPa, x1 = 0.0018, x2 = 0.0018): 0.225 ± 0.0056 S/m | electrical conductivity (333.15 K, 101 kPa, x1 = 0.0197, x2 = 0.0197): 0.681 ± 0.0085 S/m | electrical conductivity (333.15 K, 101 kPa, x1 = 0.0862, x2 = 0.0862): 0.7023 ± 0.007 S/m | electrical conductivity (333.15 K, 101 kPa, x1 = 0.146, x2 = 0.146): 0.6811 ± 0.0068 S/m

O + CCCC[n+]1ccc(C)cc1.[Br-]
electrical conductivity (288.15 K, 100 kPa, frequency 0.003 MHz, x2 = 0): 0.0001 S/m | electrical conductivity (308.15 K, 100 kPa, frequency 0.003 MHz, x2 = 0): 0.00022 S/m

CC1COC(=O)O1 (configuration not stated) + CCCC[n+]1ccccc1.N#C[N-]C#N
viscosity (318.15 K, 101 kPa, x2 = 0): 1.724 ± 0.062 mPa·s | viscosity (333.15 K, 101 kPa, x2 = 0): 1.366 ± 0.061 mPa·s

CCCC[n+]1ccn(C)c1.F[B-](F)(F)F + CCCC[n+]1ccn(C)c1.COS(=O)(=O)[O-]
viscosity (302.15 K, 101 kPa, x1 = 1): 88.7 ± 2 mPa·s | viscosity (305.15 K, 101 kPa, x1 = 1): 76.8 ± 1.5 mPa·s

C1COCCO1 + CCCC[n+]1ccn(C)c1.F[B-](F)(F)F
viscosity (298.15 K, 100 kPa, x2 = 0): 1.18 ± 0.016 mPa·s
